Laboratory results taken from article PMC7900168, “Nanocomposite-based dual enzyme system for broad-spectrum scavenging of reactive oxygen species” (Scientific Reports, 2021).

Test system: T1, horseradish peroxidase (HRP)
T1 construct: gene PRXC1A; native enzyme, free in solution
Test: guaiacol oxidation assay, spectrophotometric, Michaelis-Menten fit
Assay type: biochemical, Armoracia rusticana
Details: native free enzyme; co-substrate hydrogen peroxide
From the text: guaiacol oxidation assay, spectrophotometric, Michaelis-Menten fit on horseradish peroxidase (HRP)

Q: Which Km does the source give for `COc1ccccc1O` [guaiacol] here?
A: Its Km is 1560 ± 80 µM.
